Measured values reported in patent US20040087539A1, “Method of treating conditions related to platelet activity” (priority 2003, published 2004).

Legend:
[1] = tested on: 123 cells (CHO cells expressing recombinant human GPIb-IX and integrin αIIbβ3); test: vWF-induced GPIb-IX-mediated activation of integrin αIIbβ3 (Oregon green-labeled fibrinogen binding, flow cytometry); assay type: cell-based, Chinese Hamster; details: PKG-transfected 123 cells, 12 μg/ml vWF, 1 mg/ml ristocetin, FIGS. 1B, 1C
Protocol: Human PKG Iβ cDNA was cloned by RT-PCR, using human platelet mRNA as templates. Sequence of the human PKG Iβ cDNA fragment matches the published sequence. Cloning of human PKG Iα cDNA was described previously. PKG Iα or Iβ in pCDNA3.1/Zeo+vector was transfected into 123 cells (CHO cells expressing recombinant human CPIb-IX and integrin αIIbβ3 using Lipofectamine plus (BRL). Expression of PKG was assessed by Western blotting with an antihuman PKG I antibody (Calbiochem). The kinase activity of the expressed enzymes was measured in cell homogenates using BPDEtide (Calbiochem) as substrate as detailed previously. vWF-induced GPIb-IX-mediated activation of integrin αIIbβ3 was examined by flow cytometry analysis of Oregon green-labeled fibrinogen binding to integrln αIIbβ3 as described previously. Briefly, cells were detached from tissue culture plate using 0.5 mM EDTA, washed at 4° C. and resuspended in modified Tyrode's solution. Cells then were incubated with Oregon green-labeled fibrinogen (20 μg/ml) in the presence of ristocetin and vWF at 22° C. for 30 minutes, and analyzed by FACScalibur flow cytometer. Nonspecific binding of fibrinogen was estimated by measuring fibrinogon binding in the presence of a specific integrin inhibitor RGDS (1 mM) (see Refs. 13 and 43-45).
In FIG. 1A, CHO cells expressing GPLb-JX and integrin αIIbβ3 (123 cells) were transfected with cDNA encoding PKGIα or vector. Expression of PKG Ia in 123 cells was detected by Western blotting with an anti-human PKG I antibody (Insert), and recombinant PKG activity was determined in the absence or presence of 20 μM 8-bromo-cGMP as previously described. Results are expressed as mean +SD (n=3). For FIGS. 1B and 1C, reconstitution of GPIb-IX-mediated integrin activation in CHO cells was published (see Ref. 13). […] Cells were analyzed by flow cytometry. Quantitative results from three experiments are expressed as fibrinogen binding indices (total bound fluorescence (Fg)/nonspecifically bound fluorescence (Fg+RGDS)), and shown in FIG. 1B (mean ±SD).

platelets = test: Ristocetin-induced vWF-dependent platelet aggregation in platelet-rich plasma; assay type: cell-based, human
Protocol: Fresh blood from healthy volunteers was anticoagulated with 1/7 volume of ACD (2.5% trisodium citrate, 2% dextrose and 1.5% citric acid). Platelets were washed with CGS buffer (sodium chloride 0.12 M, trisodium citrate 0.0129 M and d-glucose 0.03 M, pH 6.5), resuspended in modified Tyrode's solution and allowed to incubate at 22° C. for 1 hours as previously described. In experiments using platelet-rich plasma (PRP), 1/10 volume of 3.8% trisodium citrate was used as anticoagulant. Platelet aggregation was measured using a turbidometric platelet aggregometer (Chrono-Log) at 37° C. vWF-dependent platelet aggregation was induced by addition of ristocetin or botrocetin to PRP. To differentiate CPIb-IX-mediated platelet agglutination from the second wave of integrin-dependent platelet aggregation, final concentrations of ristocetin were adjusted in each experiment to achieve a two-wave curve of aggregation. Washed platelets were used in platelet aggregation induced by a-thrombin (Enzyme Research Laboratories). To examine the effects of PKG, 100 μM of membrane permeable cGMP analogs, 8-bromo-cGMP or 8-dibutyl-cGMP (Calbiochem), or 1 μM sildenafil citrate (Pfizer) and added simultaneously with subthreshold concentrations of agonists. PKG inhibitors KT5823 (2 pM) and Rp-8PCPT-cGMP (0.2 mM) were preincubated with platelets at 37° C. for 5 minutes before addition of agonists.
In FIG. 3A, platelet rich-plasma (PRP) was preincubated at 37° C. for 5 mm with PKG inhibitors KT5823 (2 pM) or Rp-8pCPT-cGMP (0.2 μM). PRP was also incubated with DMSO (vehicle for KT5823), a PKA inhibitor, KT5720 (2 pM), or buffer (Control). The vWF modulator, ristocetin, was then added to induce vWF-GPIb-IX interaction. […] In FIG. 3B, a subthreshold concentration of ristocetin was added to PRP immediately followed by addition of 8-bromo-cGMP or buffer (Control). PRP also was preincubated with integrin inhibitor RGDS before adding ristocetin and 8-bromo-cGMP. In FIG. 3C, platelets were preincubated with or without PKG inhibitor KT5823, then allowed to spread on vWF-coated glass chamber slides. Platelets were stained with an anti-GPIb antibody, and fluorescein-labeled secondary antibody. The slides were imaged under a confocal microscope (magnification =630×).
In FIG. 6A, increasing concentrations of sildenafil or control 0.15 M NaCl solution were added to platelet-rich plasma followed by a subthreshold concentration of ristocetin. Platelet aggregation was recorded using a platelet aggregometer. In FIG. 6B, sildenafil or control buffer was added to washed platelets followed by addition of subthreshold doses of thrombin to induce platelet aggregation. It was noted that platelet aggregation occurs in the presence of sildenafil. The figure includes the representative results of at least three experiments.
In FIG. 7A, PRP was preincubated with 0.1 mM 8-bromo-cGMP for increasing lengths of time at 37° C. as indicated. The vWF modulator, ristocetin (1.25 mg/ml), then was added to induce platelet aggregation in a turbidometric platelet aggregometer. In FIG. 7B, PRP was preincubated with a high concentration of 8-bromo-cGMP (1 mM) for 5 minutes. Ristocetin then was added to induce platelet aggregation. In FIGS. 7C and 7D, washed platelets in modified Tyrode's solution were preincubated with 1 mM 8-bromo-cGMP (C), or various concentrations of 8-pCPT-cGMP (D) at 37° C. for 5 minutes. Thrombin (0.05 u/ml) then was added to induce platelet aggregation.

## Nc1nc2c(nc(Br)n2[C@@H]2O[C@@H]3COP(=O)(O)O[C@H]3[C@H]2O)c(=O)[nH]1 [8-bromo-cGMP]
[1]
  vWF-induced fibrinogen binding to integrin: further increased
[1]; row
  vWF-induced fibrinogen binding to integrin: dramatically increased
platelets; 1 mM 8-bromo-cGMP, FIGS. 7B, 7C
  preincubation time required to inhibit platelets: less than 5 minutes
platelets; 8-bromo-cGMP 100 μM (0.1 mM), PRP, 37° C., ristocetin 1.25 mg/ml, FIG. 7A
  preincubation time after which the inhibitory effect on platelet aggregation becomes significant: 10 min
platelets; 8-bromo-cGMP 100 μM, FIG. 7A
  GPIb-IX-dependent platelet activation, agent added simultaneously with ristocetin: promoted
platelets; PRP, agent added with subthreshold ristocetin (1 mg/mm [sic]) (or botrocetin), FIGS. 3B, 6A
  platelet aggregation together with a subthreshold concentration of ristocetin: induced integrin-dependent platelet aggregation
platelets; in some experiments, not shown
  preincubation time required for a slight inhibitory effect: 30 min
